We go through one compound from article PMC5218480 (PLoS ONE, 2017).

The assay relates to MV-4-11 cells. Nature of the assay: Gene expression microarray analysis (Affymetrix PrimeView) and GSEA. It is filed as cell-based, human. On the set-up: RFU PODN (11730768_x_at) / Fold change /veh PODN (11730768_x_at) / RFU LINC00158 (11744669_a_at) / Fold change /veh LINC00158 (11744669_a_at) / RFU DUSP10 (11751237_a_at) / Fold change /veh DUSP10 (11751237_a_at) / RFU ID3 (11757404_x_at) / Fold change /veh ID3 (11757404_x_at) / RFU PLEKHG5 (11737974_s_at) / Fold change /veh PLEKHG5 (11737974_s_at) / RFU LRRC4B (11730491_at) / Fold change /veh LRRC4B (11730491_at) / RFU GIMAP4 (11747438_a_at) / Fold change /veh GIMAP4 (11747438_a_at) / RFU KRT8 (11758183_x_at) / Fold change /veh KRT8 (11758183_x_at) / RFU CNN1 (11734310_a_at) / Fold change /veh CNN1 (11734310_a_at) / RFU VPS37D (11726825_at) / Fold change /veh VPS37D (11726825_at) / RFU C10orf10 (11716522_x_at) / Fold change /veh C10orf10 (11716522_x_at) / RFU KIR2DL2 /// KIR2DL4 /// KIR2DL5A /// KIR2DL5B /// KIR2DS1 /// KIR2DS2 /// KIR2DS3 /// KIR2DS4 /// KIR3DL3 /// KIR3DL3 /// KIR3DS1 (11738374_at) / Fold change /veh KIR2DL2 /// KIR2DL4 /// KIR2DL5A /// KIR2DL5B /// KIR2DS1 /// KIR2DS2 /// KIR2DS3 /// KIR2DS4 /// KIR3DL3 /// KIR3DL3 /// KIR3DS1 (11738374_at) / RFU C1QL1 (11718748_at) / Fold change /veh C1QL1 (11718748_at) / RFU TMPRSS4 (11747572_a_at) / Fold change /veh TMPRSS4 (11747572_a_at) / RFU HAMP (11756126_x_at) / Fold change /veh HAMP (11756126_x_at) / RFU RNFT2 (11725882_a_at) / Fold change /veh RNFT2 (11725882_a_at) / RFU NR4A2 (11747474_a_at) / Fold change /veh NR4A2 (11747474_a_at) / RFU ABCC12 (11746883_a_at) / Fold change /veh ABCC12 (11746883_a_at) / RFU TMEM136 (11760407_x_at) / Fold change /veh TMEM136 (11760407_x_at) / RFU CLDN22 /// WWC2 (11732394_at) / Fold change /veh CLDN22 /// WWC2 (11732394_at) / RFU HLA-DPB1 (11760878_x_at) / Fold change /veh HLA-DPB1 (11760878_x_at) / RFU SPINT1 (11716480_a_at) / Fold change /veh SPINT1 (11716480_a_at) / RFU GAP43 (11754022_s_at) / Fold change /veh GAP43 (11754022_s_at) / RFU A4GNT (11735810_at) / Fold change /veh A4GNT (11735810_at) / RFU PRB3 (11715151_x_at) / Fold change /veh PRB3 (11715151_x_at) / RFU TUBB4B (11761932_at) / Fold change /veh TUBB4B (11761932_at) / RFU CAPN14 (11732068_a_at) / Fold change /veh CAPN14 (11732068_a_at) / RFU TMCC2 (11721928_a_at) / Fold change /veh TMCC2 (11721928_a_at) / RFU IRGQ (11745062_a_at) / Fold change /veh IRGQ (11745062_a_at) / RFU FAM174B (11720279_a_at) / Fold change /veh FAM174B (11720279_a_at) / RFU TMPRSS4 (11748680_a_at) / Fold change /veh TMPRSS4 (11748680_a_at) / RFU FAM212B (11763350_a_at) / Fold change /veh FAM212B (11763350_a_at) / RFU PLEKHG5 (11743358_a_at) / Fold change /veh PLEKHG5 (11743358_a_at) / RFU ZSCAN30 (11745921_a_at) / Fold change /veh ZSCAN30 (11745921_a_at) / RFU CMKLR1 (11741424_a_at) / Fold change /veh CMKLR1 (11741424_a_at) / RFU LOC101060620 /// MAPK8IP1 (11723275_at) / Fold change /veh LOC101060620 /// MAPK8IP1 (11723275_at) / RFU SPTSSB (11747773_x_at) / Fold change /veh SPTSSB (11747773_x_at) / RFU PRSS12 (11739890_at) / Fold change /veh PRSS12 (11739890_at) / RFU BIN1 (11741810_x_at) / Fold change /veh BIN1 (11741810_x_at) / RFU WNT11 (11732464_a_at) / Fold change /veh WNT11 (11732464_a_at) / RFU C10orf10 (11716521_a_at) / Fold change /veh C10orf10 (11716521_a_at) / RFU C5orf56 (11738089_at) / Fold change /veh C5orf56 (11738089_at) / RFU CYB561 (11721691_x_at) / Fold change /veh CYB561 (11721691_x_at) / RFU ANKRD19P (11752326_a_at) / Fold change /veh ANKRD19P (11752326_a_at) / RFU OR2T12 /// OR2T33 /// OR2T8 (11738714_s_at) / Fold change /veh OR2T12 /// OR2T33 /// OR2T8 (11738714_s_at) / RFU VCAN (11748164_a_at) / Fold change /veh VCAN (11748164_a_at) / RFU JSRP1 (11732532_at) / Fold change /veh JSRP1 (11732532_at) / RFU KRTAP10-11 (11738290_x_at) / Fold change /veh KRTAP10-11 (11738290_x_at) / RFU MYO3A (11730013_a_at) / Fold change /veh MYO3A (11730013_a_at) / RFU EBF3 (11725865_a_at) / Fold change /veh EBF3 (11725865_a_at) / RFU CAMK2N1 (11719241_x_at) / Fold change /veh CAMK2N1 (11719241_x_at) / RFU C5orf56 (11738088_a_at) / Fold change /veh C5orf56 (11738088_a_at) / RFU OLFML3 (11715873_a_at) / Fold change /veh OLFML3 (11715873_a_at) / RFU LOC100653217 /// NTM (11731650_a_at) / Fold change /veh LOC100653217 /// NTM (11731650_a_at) / RFU MAPK11 (11762145_a_at) / Fold change /veh MAPK11 (11762145_a_at) / RFU FIZ1 (11724087_x_at) / Fold change /veh FIZ1 (11724087_x_at) / RFU OASL (11726364_x_at) / Fold change /veh OASL (11726364_x_at) / RFU SOX15 (11748057_x_at) / Fold change /veh SOX15 (11748057_x_at) / RFU CD79A (11719716_a_at) / Fold change /veh CD79A (11719716_a_at) / RFU HIST1H1D (11736915_at) / Fold change /veh HIST1H1D (11736915_at) / RFU CASKIN2 (11723855_a_at) / Fold change /veh CASKIN2 (11723855_a_at) / RFU LOC730098 (11760151_x_at) / Fold change /veh LOC730098 (11760151_x_at) / RFU OR4N2 (11742367_at) / Fold change /veh OR4N2 (11742367_at) / RFU PRRT2 (11749266_a_at) / Fold change /veh PRRT2 (11749266_a_at) / RFU SNX32 (11753110_a_at) / Fold change /veh SNX32 (11753110_a_at) / RFU CDHR5 (11726645_a_at) / Fold change /veh CDHR5 (11726645_a_at) / RFU RCAN1 (11760418_a_at) / Fold change /veh RCAN1 (11760418_a_at) / RFU FAM167A (11723789_a_at) / Fold change /veh FAM167A (11723789_a_at) / RFU FAM26E (11764081_at) / Fold change /veh FAM26E (11764081_at) / RFU ISYNA1 (11749810_s_at) / Fold change /veh ISYNA1 (11749810_s_at) / RFU ACY1 (11761880_at) / Fold change /veh ACY1 (11761880_at) / RFU 11764098_at / Fold change /veh 11764098_at / RFU SAMD14 (11745864_x_at) / Fold change /veh SAMD14 (11745864_x_at) / RFU NPB (11741838_a_at) / Fold change /veh NPB (11741838_a_at) / RFU TMPRSS6 (11731388_a_at) / Fold change /veh TMPRSS6 (11731388_a_at) / RFU KRTAP10-2 (11738614_at) / Fold change /veh KRTAP10-2 (11738614_at) / RFU ARHGAP8 /// PRR5-ARHGAP8 (11727945_x_at) / Fold change /veh ARHGAP8 /// PRR5-ARHGAP8 (11727945_x_at) / RFU KRTAP5-7 /// NADSYN1 (11734609_at) / Fold change /veh KRTAP5-7 /// NADSYN1 (11734609_at) / RFU RASL12 (11751679_a_at) / Fold change /veh RASL12 (11751679_a_at) / RFU CDKN2B (11736163_a_at) / Fold change /veh CDKN2B (11736163_a_at) / RFU PRF1 (11729649_at) / Fold change /veh PRF1 (11729649_at) / RFU, ZNF638 /// ZNF638-IT1 / Fold change vs veh, ZNF638 /// ZNF638-IT1 / RFU, PANK3 / Fold change vs veh, PANK3 / RFU, SH3YL1 / Fold change vs veh, SH3YL1 / RFU, ZEB2 / Fold change vs veh, ZEB2 / RFU, NRIP1 / Fold change vs veh, NRIP1 / RFU, PTTG1IP / Fold change vs veh, PTTG1IP / RFU, CAPN2 / Fold change vs veh, CAPN2 / RFU, MED14 / Fold change vs veh, MED14 / RFU, SNORA58 / Fold change vs veh, SNORA58 / RFU, C1orf63 / Fold change vs veh, C1orf63 / RFU, LRRFIP1 / Fold change vs veh, LRRFIP1 / RFU, NDUFAF7 / Fold change vs veh, NDUFAF7 / RFU, SLC12A2 / Fold change vs veh, SLC12A2 / RFU, IBTK / Fold change vs veh, IBTK / RFU, ESF1 / Fold change vs veh, ESF1 / Fold change vs veh, TMEM50B / RFU, TAOK1 / Fold change vs veh, TAOK1 / RFU, ACBD3 / Fold change vs veh, ACBD3 / RFU, TMA16 / Fold change vs veh, TMA16 / RFU, RWDD3 / Fold change vs veh, RWDD3 / RFU, BCAT1 / Fold change vs veh, BCAT1 / RFU, EDEM3 / Fold change vs veh, EDEM3 / RFU, TMEM33 / Fold change vs veh, TMEM33 / RFU, WDR75 / Fold change vs veh, WDR75 / RFU, AHCTF1 / Fold change vs veh, AHCTF1 / RFU, TFRC / Fold change vs veh, TFRC / RFU, ZDHHC17 / Fold change vs veh, ZDHHC17 / RFU, NOM1 / Fold change vs veh, NOM1 / RFU, ARL8B / Fold change vs veh, ARL8B / RFU, ZBTB11 / Fold change vs veh, ZBTB11 / RFU, TAMM41 / Fold change vs veh, TAMM41 / RFU, KIAA1704 /// LOC100996395 / Fold change vs veh, KIAA1704 /// LOC100996395 / RFU, ING1 / Fold change vs veh, ING1 / RFU, TRMT61B / Fold change vs veh, TRMT61B / RFU, FUBP3 / Fold change vs veh, FUBP3 / RFU, TP53 / Fold change vs veh, TP53 / RFU, TNKS2 / Fold change vs veh, TNKS2 / RFU, ZFP14 / Fold change vs veh, ZFP14 / RFU, ACTR2 / Fold change vs veh, ACTR2 / RFU, PPP3R1 / Fold change vs veh, PPP3R1 / RFU, PIK3R1 / Fold change vs veh, PIK3R1 / RFU, HNRNPA1 / Fold change vs veh, HNRNPA1 / RFU, RNF170 / Fold change vs veh, RNF170 / RFU, ZNF28 / Fold change vs veh, ZNF28 / RFU, RNGTT / Fold change vs veh, RNGTT / RFU, OGT / Fold change vs veh, OGT / RFU, BRD1 / Fold change vs veh, BRD1 / RFU, MARS / Fold change vs veh, MARS / RFU, ZNF655 / Fold change vs veh, ZNF655 / RFU, FAHD1 / Fold change vs veh, FAHD1 / RFU, BDP1 / Fold change vs veh, BDP1 / RFU, LRRCC1 / Fold change vs veh, LRRCC1 / RFU, ARID1A / Fold change vs veh, ARID1A / RFU, ZNF146 / Fold change vs veh, ZNF146 / RFU, ZNF330 / Fold change vs veh, ZNF330 / RFU, GPN3 / Fold change vs veh, GPN3 / RFU, C9orf123 / Fold change vs veh, C9orf123 / RFU, N4BP2L2 / Fold change vs veh, N4BP2L2 / RFU, ARFIP1 / Fold change vs veh, ARFIP1 / RFU, FAM179B / Fold change vs veh, FAM179B / RFU, BCL10 / Fold change vs veh, BCL10 / RFU, UHRF1BP1L / Fold change vs veh, UHRF1BP1L / RFU, BET1 / Fold change vs veh, BET1 / RFU, CNOT2 / Fold change vs veh, CNOT2 / RFU, ZNF268 / Fold change vs veh, ZNF268 / Fold change vs veh, ZNF507 / RFU, DGCR2 / Fold change vs veh, DGCR2 / RFU, WDSUB1 / Fold change vs veh, WDSUB1 / Fold change vs veh, HSP90B1 /// MIR3652 / RFU, ADSS / Fold change vs veh, ADSS / RFU, GK / Fold change vs veh, GK / RFU, ZNF148 / Fold change vs veh, ZNF148 / RFU, TAF9 / Fold change vs veh, TAF9 / RFU, SLC1A5 / Fold change vs veh, SLC1A5 / RFU, SLMO2 / Fold change vs veh, SLMO2 / RFU, ABCC4 / Fold change vs veh, ABCC4 / RFU, LOC101060439 /// RAP1B / Fold change vs veh, LOC101060439 /// RAP1B / RFU, RFX7 / Fold change vs veh, RFX7 / RFU, GTPBP10 / Fold change vs veh, GTPBP10 / RFU, CNEP1R1 / Fold change vs veh, CNEP1R1 / RFU, BIVM-ERCC5 /// ERCC5 / Fold change vs veh, BIVM-ERCC5 /// ERCC5 / RFU, ILF3 / Fold change vs veh, ILF3 / RFU 11762660_at / Fold change /veh 11762660_at / RFU VCAN (11757783_s_at) / Fold change /veh VCAN (11757783_s_at) / RFU DDX43 (11728927_at) / Fold change /veh DDX43 (11728927_at) / RFU KRT8 (11758188_x_at) / Fold change /veh KRT8 (11758188_x_at) / RFU NKD1 (11759106_at) / Fold change /veh NKD1 (11759106_at) / RFU SRD5A1 (11742802_a_at) / Fold change /veh SRD5A1 (11742802_a_at) / RFU TPSAB1 /// TPSB2 (11721975_s_at) / Fold change /veh TPSAB1 /// TPSB2 (11721975_s_at) / RFU GSTM3 (11746129_a_at) / Fold change /veh GSTM3 (11746129_a_at) / RFU IL23R (11737362_x_at) / Fold change /veh IL23R (11737362_x_at) / RFU TMEM51 (11727254_a_at) / Fold change /veh TMEM51 (11727254_a_at) / RFU PIWIL2 (11732686_x_at) / Fold change /veh PIWIL2 (11732686_x_at) / RFU ORM1 (11744905_x_at) / Fold change /veh ORM1 (11744905_x_at) / RFU CCDC152 (11743942_at) / Fold change /veh CCDC152 (11743942_at) / RFU ECM1 (11717891_a_at) / Fold change /veh ECM1 (11717891_a_at) / RFU IL23R (11748794_a_at) / Fold change /veh IL23R (11748794_a_at) / RFU TNFAIP8L3 (11732012_x_at) / Fold change /veh TNFAIP8L3 (11732012_x_at) / RFU MBOAT4 (11741988_at) / Fold change /veh MBOAT4 (11741988_at) / RFU 11764193_at / Fold change /veh 11764193_at / RFU TMEM53 (11763286_at) / Fold change /veh TMEM53 (11763286_at) / RFU MAGEB2 (11727129_at) / Fold change /veh MAGEB2 (11727129_at) / RFU TMEM200A (11744735_a_at) / Fold change /veh TMEM200A (11744735_a_at) / RFU CCDC152 (11751479_a_at) / Fold change /veh CCDC152 (11751479_a_at) / RFU FAM211A (11726209_a_at) / Fold change /veh FAM211A (11726209_a_at) / RFU RGS16 (11746705_a_at) / Fold change /veh RGS16 (11746705_a_at) / RFU VCAN (11755009_s_at) / Fold change /veh VCAN (11755009_s_at) / RFU RHOB (11743442_s_at) / Fold change /veh RHOB (11743442_s_at) / RFU RGS16 (11720943_a_at) / Fold change /veh RGS16 (11720943_a_at) / RFU RGS16 (11720944_at) / Fold change /veh RGS16 (11720944_at) / RFU, VPS4B / Fold change vs veh, VPS4B / RFU, CREB1 / Fold change vs veh, CREB1 / RFU, DNAJC13 / Fold change vs veh, DNAJC13 / RFU, GNAQ / Fold change vs veh, GNAQ / RFU, CDK5R1 / Fold change vs veh, CDK5R1 / RFU, ZRANB3 / Fold change vs veh, ZRANB3 / RFU, CUL4A / Fold change vs veh, CUL4A / RFU, CCNY / Fold change vs veh, CCNY / RFU, UFL1 / Fold change vs veh, UFL1 / RFU, COG3 / Fold change vs veh, COG3 / RFU, DIAPH2 / Fold change vs veh, DIAPH2 / RFU, SKA2 / Fold change vs veh, SKA2 / RFU, AFF3 / Fold change vs veh, AFF3 / RFU, LMF1 / Fold change vs veh, LMF1 / RFU, IPO11 / Fold change vs veh, IPO11 / RFU, DFFB / Fold change vs veh, DFFB / RFU, FOXP1 / Fold change vs veh, FOXP1 / RFU, CARD8 / Fold change vs veh, CARD8 / RFU, STRN3 / Fold change vs veh, STRN3 / RFU, ADK / Fold change vs veh, ADK / RFU, RASSF2 / Fold change vs veh, RASSF2 / RFU, WIPF1 / Fold change vs veh, WIPF1 / RFU, LARP1B / Fold change vs veh, LARP1B / RFU, RASA1 / Fold change vs veh, RASA1 / RFU, RB1 / Fold change vs veh, RB1 / RFU, PPFIA1 / Fold change vs veh, PPFIA1 / RFU, MAT2A / Fold change vs veh, MAT2A / RFU, CCT5 / Fold change vs veh, CCT5 / RFU, WDR92 / Fold change vs veh, WDR92 / RFU, CUX1 / Fold change vs veh, CUX1 / RFU, TTC7A / Fold change vs veh, TTC7A / RFU, TMEM135 / Fold change vs veh, TMEM135 / RFU, DEPTOR / Fold change vs veh, DEPTOR / RFU, CPM / Fold change vs veh, CPM / RFU, DNAJB6 / Fold change vs veh, DNAJB6 / RFU, CACNA2D3 / Fold change vs veh, CACNA2D3 / RFU, DTX4 / Fold change vs veh, DTX4 / RFU, TFCP2 / Fold change vs veh, TFCP2 / RFU, GMCL1 /// GMCL1P1 / Fold change vs veh, GMCL1 /// GMCL1P1 / RFU, AEBP2 / Fold change vs veh, AEBP2 / RFU, SNHG1 /// SNORD22 /// SNORD25 /// SNORD26 /// SNORD27 /// SNORD28 /// SNORD29 /// SNORD31 / Fold change vs veh, SNHG1 /// SNORD22 /// SNORD25 /// SNORD26 /// SNORD27 /// SNORD28 /// SNORD29 /// SNORD31 / Fold change (Aza/veh), C12orf56 (ProbeSet 11735607_a_at) / Fold change (ACY-1035/veh), C12orf56 (ProbeSet 11735607_a_at) / Fold change (Aza/veh), FGFR1OP (ProbeSet 11751329_s_at) / Fold change (ACY-1035/veh), FGFR1OP (ProbeSet 11751329_s_at) / Fold change (Aza/veh), VPS36 (ProbeSet 11739960_a_at) / Fold change (ACY-1035/veh), VPS36 (ProbeSet 11739960_a_at) / RFU SYPL1 (11715823_x_at) / Fold change /veh SYPL1 (11715823_x_at) / RFU IGFBP7 (11715501_s_at) / Fold change /veh IGFBP7 (11715501_s_at) / RFU REEP3 (11722064_at) / Fold change /veh REEP3 (11722064_at) / RFU IGLL1 (11728026_x_at) / Fold change /veh IGLL1 (11728026_x_at): dose or concentration left out as unconfirmed. Particulars: MV-4-11 cells, 48 hours.

As to `Nc1ccc(-c2cccs2)cc1NC(=O)c1ccc2c(c1)cc(C1CC1)n2CCN1CCOCC1` [ACY-1035], the “Fold change /veh LRRC4B (11730491_at)” value was 1.07.
